“And” between values parts separate entries of the source, which are not always exact repeats. Equal entries are not always repeated. Inconclusive results and toxic doses are left out. Cut-off read from the data, not from the text of the source: active = T/C of 150% or more; inactive = T/C below 125%.
Test system: L1210 leukemia ip in BDF1 mice, survival T/C
Assay: NCI In Vivo Anticancer Drug Screen. Data for tumor model L1210 Leukemia (intraperitoneal) in B6D2F1 (BDF1) mice
Settings: endpoint: mean survival time, higher = longer survival
Summary of the method: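 Tumor was transplanted into mice, which were then dosed with test compound or vehicle alone. Survival was recorded for each group, and the treated figure was expressed relative to the control figure.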

[1] = dose: 100.0 mg/kg/injection, schedule: Q04DX003 (ip), vehicle: saline
[2] = dose: 200.0 mg/kg/injection, schedule: Q04DX003 (ip), vehicle: saline
[3] = dose: 400.0 mg/kg/injection, schedule: Q04DX003 (ip), vehicle: saline
[4] = dose: 100.0 mg/kg/injection, schedule: Q01DX001 (ip), vehicle: saline
[5] = dose: 100.0 mg/kg/injection, schedule: Q01DX009 (ip), vehicle: saline with Tween-80
[6] = dose: 100.0 mg/kg/injection, schedule: Q04DX003 (ip), vehicle: saline with Tween-80
[7] = dose: 200.0 mg/kg/injection, schedule: Q01DX009 (ip), vehicle: saline with Tween-80
[8] = dose: 200.0 mg/kg/injection, schedule: Q04DX003 (ip), vehicle: saline with Tween-80
[9] = dose: 400.0 mg/kg/injection, schedule: Q04DX003 (ip), vehicle: saline with Tween-80
[10] = dose: 100.0 mg/kg/injection, schedule: Q04DX002 (ip), vehicle: saline with Tween-80
[11] = dose: 200.0 mg/kg/injection, schedule: Q04DX002 (ip), vehicle: saline with Tween-80
[12] = dose: 400.0 mg/kg/injection, schedule: Q04DX002 (ip), vehicle: saline with Tween-80
[13] = dose: 25.0 mg/kg/injection, schedule: Q04DX002 (ip), vehicle: Klucel (hydroxypropylcellulose) (HPC)
[14] = dose: 200.0 mg/kg/injection, schedule: Q01DX001 (ip), vehicle: saline

Measured: T/C

O=C(c1ccccc1)C1CCCCC1
inactive: dose: 100.0 mg/kg/injection, schedule: Q01DX001 (ip), vehicle: other 111 % of control | [1] 104 % of control | dose: 200.0 mg/kg/injection, schedule: Q01DX001 (ip), vehicle: other 100 % of control | [2] 96 % of control | dose: 400.0 mg/kg/injection, schedule: Q01DX001 (ip), vehicle: other 105 % of control | [3] 96 % of control

O=C(O)C(O)C(F)(F)F (stereo not given)
inactive: dose: 31.0 mg/kg/injection, schedule: Q01DX Z (ip), vehicle: methylcellulose (MC) 102 % of control | dose: 62.5 mg/kg/injection, schedule: Q01DX Z (ip), vehicle: methylcellulose (MC) 96 % of control | dose: 125.0 mg/kg/injection, schedule: Q01DX Z (ip), vehicle: methylcellulose (MC) 100 % of control | dose: 250.0 mg/kg/injection, schedule: Q01DX Z (ip), vehicle: methylcellulose (MC) 97 % of control

O=C(O)c1ccc(NO)cc1
inactive: dose: 24.0 mg/kg/injection, schedule: Q01DX Z (ip), vehicle: methylcellulose (MC) 103 % of control | dose: 36.0 mg/kg/injection, schedule: Q01DX Z (ip), vehicle: methylcellulose (MC) 100 % of control | dose: 55.0 mg/kg/injection, schedule: Q01DX Z (ip), vehicle: methylcellulose (MC) 102 % of control | dose: 83.0 mg/kg/injection, schedule: Q01DX Z (ip), vehicle: methylcellulose (MC) 93 % of control

[N-]=[N+]=NC1=C(Cl)C(=O)c2ccccc2C1=O
inactive: dose: 6.25 mg/kg/injection, schedule: Q04DX002 (ip), vehicle: saline with Tween-80 101 % of control | dose: 12.5 mg/kg/injection, schedule: Q04DX002 (ip), vehicle: saline with Tween-80 96 % of control | dose: 25.0 mg/kg/injection, schedule: Q04DX002 (ip), vehicle: saline with Tween-80 96 % of control

Cc1cc2c3ccccc3ccc2[n+]2ccccc12
inactive: dose: 4.5 mg/kg/injection, schedule: Q01DX009 (ip), vehicle: acetone 115 % of control | dose: 4.5 mg/kg/injection, schedule: Q01DX009 (ip), vehicle: saline 100 % of control | dose: 9.0 mg/kg/injection, schedule: Q01DX009 (ip), vehicle: acetone 120 % of control | dose: 9.0 mg/kg/injection, schedule: Q01DX009 (ip), vehicle: saline 110 % of control | dose: 18.0 mg/kg/injection, schedule: Q01DX009 (ip), vehicle: acetone 115 % of control | dose: 18.0 mg/kg/injection, schedule: Q01DX009 (ip), vehicle: saline 120 % of control | [4] 107 % of control

O=C(OCC(COC(=O)c1ccccc1)(COC(=O)c1ccccc1)[N+](=O)[O-])c1ccccc1
inactive: dose: 100.0 mg/kg/injection, schedule: Q04DX003 (ip), vehicle: Klucel (hydroxypropylcellulose) (HPC) 92 % of control | dose: 200.0 mg/kg/injection, schedule: Q04DX003 (ip), vehicle: Klucel (hydroxypropylcellulose) (HPC) 92 % of control | dose: 400.0 mg/kg/injection, schedule: Q04DX003 (ip), vehicle: Klucel (hydroxypropylcellulose) (HPC) 94 % of control

OC1CC2CCC1CC2 (stereo not given)
inactive: [5] 100 % of control | [6] 89 % of control | [7] 97 % of control | [8] 96 % of control | dose: 400.0 mg/kg/injection, schedule: Q01DX009 (ip), vehicle: saline with Tween-80 102 % of control | [9] 86 % of control

COc1ccc(C=Nc2ccc([N+](=O)[O-])cc2O)cc1
inactive: dose: 100.0 mg/kg/injection, schedule: Q01DX001 (ip), vehicle: carboxymethylcellulose (CMC) 96 % of control | dose: 200.0 mg/kg/injection, schedule: Q01DX001 (ip), vehicle: carboxymethylcellulose (CMC) 94 % of control | dose: 400.0 mg/kg/injection, schedule: Q01DX001 (ip), vehicle: carboxymethylcellulose (CMC) 90 % of control

COC(=O)c1ccc(OC(=O)Nc2ccccc2[N+](=O)[O-])cc1
inactive: [5] 97 % of control and 101 % of control | [10] 104 % of control and 110 % of control | [6] 107 % of control | [7] 96 % of control and 92 % of control | [11] 103 % of control and 104 % of control | [8] 113 % of control | [12] 94 % of control | [9] 101 % of control

C=C1CCC(C)(C2(c3ccccc3)OCCO2)CC1
inactive: [10] 98 % of control | [11] 95 % of control | [12] 91 % of control

CCCC(C=NCC(CCC)(CCN(C)C)c1cccc2ccccc12)(CCN(C)C)c1cccc2ccccc12 (stereo not given)
inactive: dose: 6.25 mg/kg/injection, schedule: Q04DX002 (ip), vehicle: Klucel (hydroxypropylcellulose) (HPC) 88 % of control | dose: 12.5 mg/kg/injection, schedule: Q04DX002 (ip), vehicle: Klucel (hydroxypropylcellulose) (HPC) 101 % of control | [13] 104 % of control

NNC(=O)CNc1cccc(Cl)c1F
inactive: [13] 92 % of control | dose: 50.0 mg/kg/injection, schedule: Q04DX002 (ip), vehicle: Klucel (hydroxypropylcellulose) (HPC) 92 % of control | dose: 100.0 mg/kg/injection, schedule: Q04DX002 (ip), vehicle: Klucel (hydroxypropylcellulose) (HPC) 122 % of control

Cc1c2c(cc3c1OCN(C1CCCCC1)C3)CN(C1CCCCC1)CO2
inactive: [4] 98 % of control | [14] 90 % of control

COc1cc(NC(C)CCCN2C(=O)c3ccccc3C2=O)c2nc(-c3ccc(Cl)cc3)ccc2c1 (stereo not given)
inactive: dose: 50.0 mg/kg/injection, schedule: Q04DX003 (ip), vehicle: saline 90 % of control | dose: 100.0 mg/kg/injection, schedule: Q01DX009 (ip), vehicle: other 94 % of control | [1] 92 % of control | dose: 200.0 mg/kg/injection, schedule: Q01DX009 (ip), vehicle: other 94 % of control | [2] 90 % of control | dose: 400.0 mg/kg/injection, schedule: Q01DX009 (ip), vehicle: other 101 % of control | [3] 87 % of control

C(Cc1ccccc1)=C(CCc1ccccc1)CCc1ccccc1
inactive: dose: 100.0 mg/kg/injection, schedule: Q01DX001 (ip), vehicle: saline with Tween-80 104 % of control | dose: 200.0 mg/kg/injection, schedule: Q01DX001 (ip), vehicle: saline with Tween-80 93 % of control | dose: 400.0 mg/kg/injection, schedule: Q01DX001 (ip), vehicle: saline with Tween-80 93 % of control

CC(=O)Nc1ccc(OC(=O)Nc2cc(C(F)(F)F)ccc2Cl)cc1
inactive: dose: 100.0 mg/kg/injection, schedule: Q01DX009 (ip), vehicle: Klucel (hydroxypropylcellulose) (HPC) 93 % of control | dose: 200.0 mg/kg/injection, schedule: Q01DX009 (ip), vehicle: Klucel (hydroxypropylcellulose) (HPC) 111 % of control

C/C=C/C=C/CC
inactive: [4] 109 % of control | [14] 102 % of control | dose: 400.0 mg/kg/injection, schedule: Q01DX001 (ip), vehicle: saline 109 % of control

— PubChem BioAssay AID248 (DTP/NCI, 2004)
